Measured values: patent US7662842B2, “Thiazolidinone amides, thiazolidine carboxylic acid amides, and serine amides, including polyamine conjugates thereof, as selective anti-cancer agents” (Ohio State Univesity Research Foundation, priority 2003, dated 2010)
Structures can show the parent of a compound that is named as a salt. Where two headings read alike, the source gives them in different places. Blank lines part the entries; values can stand above or below the compound they belong to.

What was measured:
human dermal fibroblasts = test: Sulforhodamine B assay, fibroblast control cells; format: cell-based; details: SRB assay, 48 h incubation
Procedure: (§1) SKMEL-188 cells were cultured in Ham's F10 medium (Gibco Invitrogen, Inc., Grand Island, N.Y.) plus 5% fetal bovine serum (Cellgro Mediatech, Inc., Herndon, Va.) and 1% antibiotic/antimycotic mixture (Sigma-Aldrich, Inc., St. Louis, Mo.). WM-164 cells (gift of Dr. Meenhard Herlyn, Wistar Inst., Philadelphia, Pa.) and human dermal fibroblasts (Cascade Biologics, Inc., Portland, Oreg.) were cultured in DMEM medium (Cellgro Mediatech, Inc.) supplemented with 5% fetal bovine serum, 1% antibiotic.antimycotic mixture and bovine insulin ([…], Sigma-Aldrich, Inc.). Human dermal fibroblasts were used as a control to examine the effects of compounds on stromal environment. Thus, the effect of the various compounds on melanoma cells versus fibroblasts would document their potential selectivity.
(§2) Sulforhodamine B Assay: Cells were seeded into 96-well plates at 5000 cells/well. After 12 hours, media were changed and serial dilutions of compounds were added. Cells were incubated with each compound for 48 hours. Fresh media containing the test compound were changed ever 24 hours. Thereafter, total cell protein corresponding to cell numbers (both viable and non-viable cells) were measured using the sulforhodamine B (SRB) assay according to manufacturer's protocol (Sigma-Aldrich, Inc.) (Rubinstein et al., “Comparison of in vitro Anticancer Drug-screening Data Generated with a Tetrazolium Assay Versus a Protein Assay Against a Diverse Panel of Human Tumor Cell Lines,” J. Natl. Cancer Inst. 82:1113-1118 (1990); Dothager et al., “Synthesis and Identification of Small Molecules that Potently Induce Apoptosis in Melanoma Cells Through GI Cell Cycle Arrest,” J. Am. Chem. Soc. 127:8686-8696 (2005), each of which is hereby incorporated by reference in its entirety). Briefly, cells were fixed with trichloracetic acid, washed and incubated with sulforhodamine B for 30 minutes. After another wash, dye incorporated into the cells was solubilized and measured using a plate reader at 565 nm.
(§3) Statistical Analysis: Data is presented as mean±SEM (n=6-8). […] Statistical analyses were performed with Student's t-test (*p<0.05; **p<0.005).
(§4) DTIC and Taxol were assayed in the same way for comparison and served as internal quality controls in the different batches of assay. For comparison, the activities of 5R and 5S were measured.

WM-164 cells = test: Sulforhodamine B assay in melanoma cells, WM-164; format: cell-based; details: SRB assay, 48 h incubation, melanoma cell line
Procedure: as §1, §2, §3, §4

SKMEL-188 melanoma cells = test: Sulforhodamine B assay in melanoma cells, SKMEL-188; format: cell-based; details: SRB assay, 48 h incubation, melanoma cell line
Procedure: as §1, §2, §3, §4

[1] = system: human breast cancer cell line (MCF-7); test: SRB cytotoxicity assay, MCF-7; format: cell-based
Procedure: (§5) For in vitro cytotoxicity screening, 1000 to 5000 cells were plated into each well of 96-well plates depending on growth rate, and exposed to different concentrations of a test compound for 96 h in three to five replicates. All the compounds were dissolved in dimethyl sulfoxide at 5 to 20 mM, and diluted to desired concentrations in complete culture medium. Cell numbers at the end of the drug treatment were measured by the SRB assay (Gududuru et al., “Synthesis and Biological Evaluation of Novel Cytotoxic Phospholipids for Prostate Cancer,” Bioorg. Med. Chem. Lett. 14:4919-4923 (2004); Rubinstein et al., “Comparison of in vitro Anticancer-Drug-Screening Data Generated with a Tetrazolium Assay Versus a Protein Assay Against a Diverse Panel of Human Tumor Cell Lines,” J. Natl. Cancer Inst. 82:1113-1118 (1990), each of which is hereby incorporated by reference in its entirety). Briefly, the cells were fixed with 10% of trichloroacetic acid, stained with 0.4% SRB, and the absorbances at 540 nm was measured using a plate reader (DYNEX Technologies, Chantilly, Va.). […] A sandwich ELISA (Roche, Mannheim, Germany) utilizing monoclonal antibodies specific for DNA and histones was used to quantify degree of apoptosis induced by the analogs after 72 h exposure. This assay measures DNA-histone complexes (mono- and oligonucleosomes) released into cytoplasm from the nucleus during apoptosis.
In vitro cytotoxicity assay was performed by the same sulforhodamine B (SRB) assay (described above). The compounds shown in Table 8 below where tested for activity against the breast cancer and ovarian cancer cell lines.
RH7777 and CV-1 cells were used as negative controls and MCF-7 cell line (breast cancer) was included to examine the selectivity.

[2] = system: PPC-1 human prostate cancer cells; test: SRB cytotoxicity assay, PPC-1; format: cell-based; details: prostate cancer cell line
Procedure: (§6) Dr. Mitchell Steiner at University of Tennessee Health Science Center, kindly provided PPC-1 and TSU-Pr1 cells.
as §5

[3] = system: PC-3 human prostate cancer cells; test: SRB cytotoxicity assay, PC-3; format: cell-based; details: 96 h exposure, prostate cancer cell line
Procedure: as §5

[4] = system: DU-145 human prostate cancer cells; test: SRB cytotoxicity assay, DU-145; format: cell-based
Procedure: as §5

[5] = system: TSU-Pr1 human prostate cancer cells; test: SRB cytotoxicity assay, TSU-Pr1; format: cell-based; details: prostate cancer cell line
Procedure: as §6, §5

[6] = system: LNCaP human prostate cancer cells; test: SRB cytotoxicity assay, LNCaP; format: cell-based; details: 96 h exposure, prostate cancer cell line
Procedure: as §5

[7] = system: RH7777 rat hepatoma cells; test: SRB cytotoxicity assay, RH7777 control cell line; format: cell-based; details: SRB assay, 96 h exposure, control cell line
Procedure: as §5

CV-1 cells = test: SRB cytotoxicity assay, CV-1 control cell line; format: cell-based
Procedure: For in vitro cytotoxicity screening, 1000 to 5000 cells were plated into each well of 96-well plates depending on growth rate, and exposed to different concentrations of a test compound for 96 h in three to five replicates. All the compounds were dissolved in dimethyl sulfoxide at 5 to 20 mM, and diluted to desired concentrations in complete culture medium. Cell numbers at the end of the drug treatment were measured by the SRB assay (Gududuru et al., “Synthesis and Biological Evaluation of Novel Cytotoxic Phospholipids for Prostate Cancer,” Bioorg. Med. Chem. Lett. 14:4919-4923 (2004); Rubinstein et al., “Comparison of in vitro Anticancer-Drug-Screening Data Generated with a Tetrazolium Assay Versus a Protein Assay Against a Diverse Panel of Human Tumor Cell Lines,” J. Natl. Cancer Inst. 82:1113-1118 (1990), each of which is hereby incorporated by reference in its entirety). Briefly, the cells were fixed with 10% of trichloroacetic acid, stained with 0.4% SRB, and the absorbances at 540 nm was measured using a plate reader (DYNEX Technologies, Chantilly, Va.). […] A sandwich ELISA (Roche, Mannheim, Germany) utilizing monoclonal antibodies specific for DNA and histones was used to quantify degree of apoptosis induced by the analogs after 72 h exposure. This assay measures DNA-histone complexes (mono- and oligonucleosomes) released into cytoplasm from the nucleus during apoptosis. RH7777 cells were employed because of nonspecific cytotoxicity of compound 4 in receptor-negative cells as well as receptor-positive prostate cancer cells.
RH7777 and CV-1 cells were used as negative controls and MCF-7 cell line (breast cancer) was included to examine the selectivity. 5-Fluorouracil was used as reference drug.

[8] = Homo sapiens, WM164, read-out: IC50 WM-164
[9] = Homo sapiens, PPC-1, 96 h exposure
[10] = read-out: IC50 DU-145, 96 h exposure, prostate cancer cell line

SMILES: CCCCCCCCCCCCCCCCCCNC(=O)[C@@H]1CSC(C2CCCCC2)N1 (mixture of isomers) [Compound 8, (2RS, 4R)-2-Cyclohexylthiazolidine-4-carboxylic acid octadecylamide]
IC50 (WM-164 cells; [8]): > 50 µM

SMILES: CCCCCCCCCCCCCCCCCCNC(=O)[C@@H]1CSC(c2c[nH]c3ccccc23)N1 (mixture of isomers) [Compound 10, (2RS, 4R)-2-(1H-Indol-3yl)-thiazolidine-4-carboxylic acid octadecylamide]
IC50 ([1]; Homo sapiens, MCF7, SRB assay): 10.6 µM

SMILES: CCCCCCCCCCCCCCCCCCNC(=O)[C@@H]1CSC(c2cc(OC)c(OC)c(OC)c2)N1.Cl (mixture of isomers) [Compound 17, (2RS, 4R)-2-(3,4,5-Trimethoxy-phenyl)-thiazolidine-4-carboxylic acid octadecylamide Hydrochloride]
IC50 (human dermal fibroblasts; Homo sapiens, Fibroblast, 48 h): 5.2 µM
melting point: 115 °C
IC50 (WM-164 cells; [8]): 1.5 µM
IC50 [2, 9]: 0.48 µM
IC50 (SKMEL-188 melanoma cells; SK-MEL-188, 48 h): 1.8 µM

SMILES: CCCCCCCCCCCCCCCCCCNC(=O)[C@@H]1CSC(c2ccc(F)cc2)N1 (mixture of isomers) [Compound 19, (2RS, 4R)-2-(4-Fluoro-phenyl)-thiazolidine-4-carboxylic acid octadecylamide]
IC50 ([3]; Homo sapiens): 6.8 µM

SMILES: CCCCCCCCCCCCCCCCCCNC(=O)[C@@H]1CSC(c2ccc([N+](=O)[O-])cc2)N1 (mixture of isomers) [Compound 21, (2RS, 4R)-2-(4-Nitro-phenyl)-thiazolidine-4-carboxylic acid octadecylamide]
IC50 ([1]; Homo sapiens, MCF7, SRB assay): 15.3 µM

SMILES: COc1cc(C2NC(C(=O)NCCCNCCCCNCCCN)CS2)cc(OC)c1OC (mixture of isomers) [Compound 224]
IC50 [4, 10]: 5.1 µM
IC50 ([5]; 96 h exposure): 3 µM
IC50 [6]: 10.9 µM
IC50 [3]: 5.9 µM
IC50 [7]: 71.9 µM
IC50 (CV-1 cells): 30.5 µM
IC50 ([2]; 96 h exposure): 5 µM
IC50 ([1]; SRB assay): > 100 µM

SMILES: NCCCNCCCCNCCCNC(=O)C(N)CO (stereo not drawn) [Compound 216]
IC50 [4, 10]: 4.6 µM
IC50 ([5]; 96 h exposure): 2.5 µM
IC50 [6]: 8 µM
IC50 [3]: 4.8 µM
IC50 [7]: 58.2 µM
IC50 (CV-1 cells): 37.1 µM
IC50 ([2]; 96 h exposure): 4 µM
IC50 ([1]; SRB assay): > 100 µM

SMILES: NCCCNCCCCNCCCNC(=O)CN1C(=O)CSC1c1ccccc1 (stereo not drawn) [Compound 220]
IC50 [4, 10]: 5.3 µM
IC50 ([5]; 96 h exposure): 3.2 µM
IC50 [6]: 12.2 µM
IC50 [3]: 7 µM
IC50 [7]: 68.4 µM
IC50 (CV-1 cells): 34 µM
IC50 ([2]; 96 h exposure): 5.7 µM
IC50 ([1]; SRB assay): > 100 µM

More lines, main results first:

IC50 (WM-164 cells; [8]): 3.3 µM
IC50 (SKMEL-188 melanoma cells; SK-MEL-188, 48 h): 3.8 µM
SMILES: CCCCCCCCCCCCCCOCCCNCCCNC(=O)[C@@H](CO)NC(=O)OC(C)(C)C
IC50 (human dermal fibroblasts; Homo sapiens, Fibroblast, 48 h): 3.4 µM

melting point: 99 °C
SMILES: CCCCCCCCCCCCCCCCCCNC(=O)C1CSC(c2ccoc2)N1 (stereo not drawn) (as salt: hydrochloride) [Compound 12, 2-(furan-3-yl)-N-octadecylthiazolidine-4-carboxamide]

melting point: 86 °C
SMILES: CCCCCCCCCCCCCCCCCCNC(=O)[C@@H]1CSC(CCCCCCCCCCCC)N1 (mixture of isomers) [Compound 7, (2RS, 4R)-2-Dodecylthiazolidine-4-carboxylic acid octadecylamide]

melting point: 95 °C
IC50 (WM-164 cells; [8]): 13.1 µM
IC50 (SKMEL-188 melanoma cells; SK-MEL-188, 48 h): 9.7 µM
SMILES: CCCCCCCCCCCCCCCCCCNC(=O)[C@@H]1CSC(c2ccc(OC)cc2)N1.Cl (mixture of isomers) [Compound 15, (2RS, 4R)-2-(4-Methoxy-phenyl)-thiazolidine-4-carboxylic acid octadecylamide Hydrochloride]
IC50 (human dermal fibroblasts; Homo sapiens, Fibroblast, 48 h): 28 µM

melting point: 170 °C
IC50 (WM-164 cells; [8]): 5.5 µM
IC50 (SKMEL-188 melanoma cells; SK-MEL-188, 48 h): 2.7 µM
SMILES: CCCCCCCCCCCCCCCCCCNC(=O)[C@@H]1CSC(c2ccc(NC(C)=O)cc2)N1.Cl (mixture of isomers) [Compound 18, (2RS, 4R)-2-(4-Acetylamino-phenyl)-thiazolidine-4-carboxylic acid octadecylamide Hydrochloride]
IC50 (human dermal fibroblasts; Homo sapiens, Fibroblast, 48 h): > 10 µM

melting point: 90 °C
SMILES: CCCCCCCCCCCCCCCCCCNC(=O)[C@@H]1CSC(c2ccc(C#N)cc2)N1 (mixture of isomers) [Compound 22, (2RS, 4R)-2-(4-Cyano-phenyl)-thiazolidine-4-carboxylic acid octadecylamide]
IC50 ([4]; Homo sapiens, DU-145, read-out: IC50 DU-145, 96 h exposure, prostate cancer cell line): > 20 µM
IC50 ([5]; Homo sapiens, TSU-Pr1, 96 h exposure): > 20 µM
IC50 ([6]; Homo sapiens, LNCaP): 5.9 µM
IC50 ([7]; Rattus norvegicus, RH7777): > 20 µM
IC50 [2, 9]: 5 µM

melting point: 49 °C
SMILES: CCCCCCCCCCCCCCCCCCNC(=O)[C@@H]1CSC(c2c(Cl)cccc2Cl)N1 (mixture of isomers) [Compound 24, (2RS, 4R)-2-(2,6-Dichloro-phenyl)-thiazolidine-4-carboxylic acid octadecylamide]

melting point: 130 °C
SMILES: CCCCCCCCCCCCCCCCCCNC(=O)[C@@H]1CSC(c2ccc(-c3ccccc3)cc2)N1.Cl (mixture of isomers) [Compound 27, (2RS, 4R)-2-Biphenyl-4-yl-thiazolidine-4-carboxylic acid octadecylamide Hydrochloride]

IC50 (WM-164 cells; [8]): 3.6 µM
IC50 (SKMEL-188 melanoma cells; SK-MEL-188, 48 h): 3.2 µM
SMILES: CCCCCCCCCCCCCCCCCCNC[C@@H](CO)NC [drawing 31]
IC50 (human dermal fibroblasts; Homo sapiens, Fibroblast, 48 h): 1.6 µM

IC50 (WM-164 cells; read-out: IC50 WM-164): 3.6 µM
IC50 (SKMEL-188 melanoma cells): 3.1 µM
SMILES: CCCCCCCCCCCCCCCCCCNC[C@@H](CO)NC [drawing 32]
IC50 (human dermal fibroblasts): 2.3 µM
